Source: PubChem BioAssay AID330 (DTP/NCI, 2004)
Values joined by “and” are separate entries in the source; they are usually repeats but may differ in a detail not shown here. Equal values may be shown once. Inconclusive results and toxic doses are left out. How the source made its calls: active means survival T/C of 150% or more; inactive means T/C below 125% in these data.

System: P388 leukemia ip, CD2F1 mice, survival T/C
Assay: NCI In Vivo Anticancer Drug Screen. Data for tumor model P388 Leukemia (intraperitoneal) in CD2F1 (CDF1) mice
Settings: endpoint: median survival time, higher = longer survival
In short: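 Mice carrying the transplanted tumor received test compound or vehicle. Survival was recorded in each group, and the value is the treated-group measurement divided by that of the vehicle-treated control group.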

[1] = dose: 60.0 mg/kg/injection, schedule: Q01DX005 (ip), vehicle: saline with Tween-80
[2] = dose: 120.0 mg/kg/injection, schedule: Q01DX005 (ip), vehicle: saline with Tween-80
[3] = dose: 240.0 mg/kg/injection, schedule: Q01DX005 (ip), vehicle: saline with Tween-80
[4] = dose: 100.0 mg/kg/injection, schedule: Q04DX003 (ip), vehicle: saline with Tween-80
[5] = dose: 200.0 mg/kg/injection, schedule: Q04DX003 (ip), vehicle: saline with Tween-80
[6] = dose: 400.0 mg/kg/injection, schedule: Q04DX003 (ip), vehicle: saline with Tween-80
[7] = dose: 50.0 mg/kg/injection, schedule: Q01DX009 (ip), vehicle: saline with Tween-80
[8] = dose: 100.0 mg/kg/injection, schedule: Q01DX009 (ip), vehicle: saline with Tween-80
[9] = dose: 200.0 mg/kg/injection, schedule: Q01DX009 (ip), vehicle: saline with Tween-80
[10] = dose: 50.0 mg/kg/injection, schedule: Q04DX002 (ip), vehicle: saline with Tween-80
[11] = dose: 100.0 mg/kg/injection, schedule: Q04DX002 (ip), vehicle: saline with Tween-80
[12] = dose: 200.0 mg/kg/injection, schedule: Q04DX002 (ip), vehicle: saline with Tween-80
[13] = dose: 25.0 mg/kg/injection, schedule: Q01DX005 (ip), vehicle: Klucel (hydroxypropylcellulose) (HPC)
[14] = dose: 50.0 mg/kg/injection, schedule: Q01DX005 (ip), vehicle: Klucel (hydroxypropylcellulose) (HPC)
[15] = dose: 50.0 mg/kg/injection, schedule: Q01DX005 (ip), vehicle: saline with Tween-80
[16] = dose: 100.0 mg/kg/injection, schedule: Q01DX005 (ip), vehicle: Klucel (hydroxypropylcellulose) (HPC)
[17] = dose: 12.5 mg/kg/injection, schedule: Q01DX009 (ip), vehicle: saline
[18] = dose: 25.0 mg/kg/injection, schedule: Q01DX009 (ip), vehicle: saline
[19] = dose: 6.25 mg/kg/injection, schedule: Q01DX009 (ip), vehicle: saline
[20] = dose: 50.0 mg/kg/injection, schedule: Q01DX009 (ip), vehicle: saline
[21] = dose: 100.0 mg/kg/injection, schedule: Q01DX009 (ip), vehicle: saline
[22] = dose: 200.0 mg/kg/injection, schedule: Q01DX005 (ip), vehicle: Klucel (hydroxypropylcellulose) (HPC)

Measured: T/C

Cc1cc([N+](=O)[O-])ccc1NC(=O)OC(C)C
inactive: [1] 99 % of control | [2] 111 % of control | [3] 99 % of control

C=C1C(=O)OCC1C(=O)OCC (stereo not given)
inactive: [4] 103 % of control | [5] 107 % of control | [6] 98 % of control

CC1=NN(C(=O)c2ccncc2)C(=O)C1N=Nc1ccc(Cl)cc1 (stereo not given)
inactive: [7] 104 % of control | [8] 99 % of control | [9] 105 % of control

CN=C(N)N/N=C/c1ccc2c(c1)Cc1ccccc1-2
inactive: dose: 6.25 mg/kg/injection, schedule: Q04DX002 (ip), vehicle: saline with Tween-80 106 % of control and 122 % of control | dose: 12.5 mg/kg/injection, schedule: Q04DX002 (ip), vehicle: saline with Tween-80 109 % of control | dose: 25.0 mg/kg/injection, schedule: Q04DX002 (ip), vehicle: saline with Tween-80 107 % of control | [10] 119 % of control and 124 % of control | [11] 118 % of control

O=C1c2cc([N+](=O)[O-])cc3cc([N+](=O)[O-])cc(c23)C(=O)N1CCN1CCN(CCN2C(=O)c3cc([N+](=O)[O-])cc4cc([N+](=O)[O-])cc(c34)C2=O)CC1
inactive: [11] 100 % of control | [12] 97 % of control | dose: 400.0 mg/kg/injection, schedule: Q04DX002 (ip), vehicle: saline with Tween-80 94 % of control

COc1ccc2c3c(ccc2c1)C(=O)/C(=C\O)CC3
inactive: dose: 12.5 mg/kg/injection, schedule: Q01DX005 (ip), vehicle: Klucel (hydroxypropylcellulose) (HPC) 103 % of control | [13] 93 % of control | [14] 95 % of control and 97 % of control

COc1ccc(N=Nc2c(C)nn(C(=S)S)c2C)cc1
inactive: [15] 113 % of control | dose: 100.0 mg/kg/injection, schedule: Q01DX005 (ip), vehicle: saline with Tween-80 101 % of control | dose: 200.0 mg/kg/injection, schedule: Q01DX005 (ip), vehicle: saline with Tween-80 106 % of control

CN(C)CCC=C1c2ccccc2C(C)(C)c2ccccc21
inactive: [14] 98 % of control | [16] 97 % of control

c1cnc2n[se]nc2c1
inactive: dose: 6.25 mg/kg/injection, schedule: Q04DX002 (ip), vehicle: saline 113 % of control | dose: 12.5 mg/kg/injection, schedule: Q04DX002 (ip), vehicle: saline 97 % of control

CCn1c2nc(=O)n(C)c(=O)c-2cc2ccccc21
inactive: [7] 111 % of control | [8] 111 % of control | [9] 116 % of control

COc1cccc(CSC(=N)N)c1
inactive: dose: 12.5 mg/kg/injection, schedule: Q01DX009 (ip), vehicle: Klucel (hydroxypropylcellulose) (HPC) 109 % of control | dose: 25.0 mg/kg/injection, schedule: Q01DX009 (ip), vehicle: Klucel (hydroxypropylcellulose) (HPC) 99 % of control | dose: 50.0 mg/kg/injection, schedule: Q01DX009 (ip), vehicle: Klucel (hydroxypropylcellulose) (HPC) 100 % of control and 110 % of control

CN(C)CCC[N+](C)(C)Cc1ccc(C[N+](C)(C)CCC[N+](C)(C)Cc2ccc(CCl)cc2)cc1
inactive: [17] 106 % of control | [18] 92 % of control

Cc1cc(C)n(C(=O)n2nc(C)cc2C)n1
inactive: dose: 50.0 mg/kg/injection, schedule: Q01DX005 (ip), vehicle: saline 100 % of control | dose: 100.0 mg/kg/injection, schedule: Q01DX005 (ip), vehicle: saline 107 % of control | dose: 200.0 mg/kg/injection, schedule: Q01DX005 (ip), vehicle: saline 100 % of control

CC/C(C)=N/NC(=S)NC
inactive: [19] 98 % of control | [17] 98 % of control | [18] 101 % of control

CCCCSc1nn(CCC#N)c(=O)[nH]c1=O
inactive: dose: 25.0 mg/kg/injection, schedule: Q01DX005 (ip), vehicle: water 98 % of control | dose: 50.0 mg/kg/injection, schedule: Q01DX005 (ip), vehicle: water 100 % of control | dose: 100.0 mg/kg/injection, schedule: Q01DX005 (ip), vehicle: water 103 % of control | dose: 200.0 mg/kg/injection, schedule: Q01DX005 (ip), vehicle: water 100 % of control

CN(C)P1(N(C)C)=NP(N(C)C)(N(C)C)=NP(N(C)C)(N(C)C)=N1
inactive: [17] 99 % of control | [18] 89 % of control | dose: 25.0 mg/kg/injection, schedule: Q04DX003 (ip), vehicle: saline 99 % of control | [20] 90 % of control | dose: 50.0 mg/kg/injection, schedule: Q04DX003 (ip), vehicle: saline 100 % of control | [21] 96 % of control | dose: 100.0 mg/kg/injection, schedule: Q04DX003 (ip), vehicle: saline 100 % of control

COc1ccc(C(C)c2cc3c(cc2OCC(C)=O)OCO3)cc1 (stereo not given)
inactive: [1] 97 % of control | [2] 94 % of control | [3] 94 % of control

CC1(C)C(C#N)C(=O)NC(=O)C1C#N (stereo not given)
inactive: dose: 12.5 mg/kg/injection, schedule: Q01DX009 (ip), vehicle: water 97 % of control | dose: 25.0 mg/kg/injection, schedule: Q01DX009 (ip), vehicle: water 95 % of control | dose: 50.0 mg/kg/injection, schedule: Q01DX009 (ip), vehicle: water 93 % of control | dose: 100.0 mg/kg/injection, schedule: Q01DX009 (ip), vehicle: water 104 % of control | dose: 200.0 mg/kg/injection, schedule: Q01DX009 (ip), vehicle: water 101 % of control

Cc1ccc(S(=O)(=O)Nc2cccc3c(NS(=O)(=O)c4ccc(C)cc4)cccc23)cc1
inactive: [8] 100 % of control | [4] 100 % of control | [9] 95 % of control | [5] 90 % of control | [6] 100 % of control

Cc1noc(NS(=O)(=O)c2ccc(N=Nc3cc(N=Nc4ccc(S(=O)(=O)Nc5onc(C)c5C)cc4)c4c(NC(=O)C(Cl)Cl)cccc4c3O)cc2)c1C (tested in a mixture with another compound)
inactive: [15] 117 % of control and 118 % of control

CC(=Nc1ccc2c(c1)C(=O)c1ccc(N=C(C)N(C)C)cc1C2=O)N(C)C
inactive: [14] 100 % of control | [16] 109 % of control | [22] 100 % of control

Cc1ccccc1-n1c(C)nc2c(cnn2C)c1=O
inactive: [14] 100 % of control | [16] 95 % of control | [22] 97 % of control

CC(C)(C)N(O)c1cccc(P(c2ccccc2)c2ccccc2)c1
inactive: [10] 91 % of control | [11] 94 % of control | [12] 100 % of control

O=C1CCSC(=S)N1c1ccc(N=Nc2ccccc2)cc1
inactive: [20] 105 % of control | [21] 110 % of control | dose: 200.0 mg/kg/injection, schedule: Q01DX009 (ip), vehicle: saline 110 % of control

CN(C)C1=NC(NC2CCCCC2)(N(C)C)OC(N(C)C)=N1 (stereo not given)
inactive: [13] 105 % of control | [14] 96 % of control | [16] 100 % of control

C[n+]1c(/C=C/c2ccc(N3CCCC3)cc2)sc2ccccc21
inactive: dose: 0.79 mg/kg/injection, schedule: Q01DX009 (ip), vehicle: saline 105 % of control | dose: 1.56 mg/kg/injection, schedule: Q01DX009 (ip), vehicle: saline 95 % of control | dose: 3.12 mg/kg/injection, schedule: Q01DX009 (ip), vehicle: saline 106 % of control and 117 % of control | [19] 108 % of control
